Experimental data reported in patent publication US20020156236A1, “Binding sites for phosphotyrosine binding domains” (priority 1995, published 2002).
Where a SMILES comes first, the peptide text is derived from it. Where no end group is shown, it is not given here.

Molecular target: T1, PTB domain/c-erbB2 binding (GST-PTB domain of SHC; c-erbB2 from SKBR3 lysate) (Homo sapiens, UniProt P29353)
T1 construct: GST-PTB domain fusion proteins were expressed from recombinant baculovirus in sf9 cells; made in house; host or cells: Sf9 cells (recombinant baculovirus) for GST-PTB; c-erbB2 endogenous in SKBR3 cell lysate
T1 sequence (P29353 156-341): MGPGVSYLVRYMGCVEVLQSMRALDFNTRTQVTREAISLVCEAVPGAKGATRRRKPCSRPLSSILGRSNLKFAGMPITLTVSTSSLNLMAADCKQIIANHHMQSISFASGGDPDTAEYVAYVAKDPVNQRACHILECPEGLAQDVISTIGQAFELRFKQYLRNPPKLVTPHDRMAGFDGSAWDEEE
Assay: biochemical

[1] = Affinity (IC50), Table 3, ability to block PTB domain/c-erbB2 binding

Compound | IC50 (Affinity (IC50)) | IC50 (Apparent Inhibition (IC50)) | further results
CC(C)C[C@H](NC(=O)[C@H](CCC(N)=O)NC(=O)[C@H](CC(N)=O)NC(=O)[C@H](CCC(N)=O)NC(=O)[C@H](CO)NC(=O)[C@H](Cc1ccc(OP(=O)(O)O)cc1)NC(=O)[C@H](Cc1c[nH]c2ccccc12)NC(=O)[C@H](CO)NC(=O)[C@@H](N)CC(=O)O)C(=O)N[C@@H](Cc1ccccc1)C(=O)N[C@@H](CC(=O)O)C(=O)N[C@@H](CO)C(=O)N[C@@H](Cc1ccccc1)C(=O)N[C@@H](C)C(=O)N1CCC[C@H]1C(=O)N[C@@H](CCC(=O)O)C(=O)NCC(=O)N[C@@H](Cc1ccc(OP(=O)(O)O)cc1)C(=O)N1CCC[C@H]1C(=O)N[C@@H](C)C(=O)N[C@@H](CC(N)=O)C(=O)O [DSW (pY) SQNQLFDSFAPEG (pY) PAN] (HELM PEPTIDE1{D.S.W.[O=C([C@H](Cc1ccc(OP(=O)(O)O)cc1)N[*:1])[*:2]].S.Q.N.Q.L.F.D.S.F.A.P.E.G.[O=C([C@H](Cc1ccc(OP(=O)(O)O)cc1)N[*:1])[*:2]].P.A.N}$$$$V2.0) | > 30000 nM | – | –
CC(C)C[C@H](NC(=O)[C@H](CC(N)=O)NC(=O)[C@H](CC(=O)O)NC(=O)[C@H](Cc1ccccc1)NC(=O)[C@H](C)N)C(=O)N[C@@H](Cc1ccc(OP(=O)(O)O)cc1)C(=O)N[C@@H](Cc1ccc(O)cc1)C(=O)N[C@@H](Cc1c[nH]c2ccccc12)C(=O)N[C@@H](CC(=O)O)C(=O)N[C@@H](CCC(N)=O)C(=O)N[C@@H](CC(N)=O)C(=O)N[C@@H](CO)C(=O)O [AFDNL (pY) YWDQNS, AFDNL(pY)YWDQNS] (HELM PEPTIDE1{A.F.D.N.L.[O=C([C@H](Cc1ccc(OP(=O)(O)O)cc1)N[*:1])[*:2]].Y.W.D.Q.N.S}$$$$V2.0; N-terminus and C-terminus assumed) | 1000 nM | – | fold less effective in competition: 30 fold; inhibition of / competition for PTB domain/c-erbB2 binding, in words: strong inhibition; block of PTB/c-erbB2 interaction at one peptide concentration, in words (FIG. 2C, 300 nM peptides (legend says 500 nM)): some inhibition
CC(C)C[C@H](NC(=O)[C@H](CC(N)=O)NC(=O)[C@H](CC(=O)O)NC(=O)[C@H](Cc1ccccc1)NC(=O)[C@H](C)NC(=O)[C@@H]1CCCN1C(=O)[C@H](CO)NC(=O)[C@H](Cc1ccccc1)NC(=O)[C@H](C)NC(=O)[C@@H]1CCCN1)C(=O)N[C@@H](COP(=O)(O)O)C(=O)N[C@@H](COP(=O)(O)O)C(=O)N[C@@H](Cc1c[nH]c2ccccc12)C(=O)N[C@@H](CC(=O)O)C(=O)N[C@@H](CCC(N)=O)C(=O)N[C@@H](CC(N)=O)C(=O)N[C@@H](CO)C(=O)N[C@@H](CO)C(=O)N[C@@H](CCC(=O)O)C(=O)N[C@@H](CCC(N)=O)C(=O)NCC(=O)O [PAFSPAFDNL (pS) (pS) WDQNSSEQG] (HELM PEPTIDE1{P.A.F.S.P.A.F.D.N.L.[O=C([C@H](COP(=O)(O)O)N[*:1])[*:2]].[O=C([C@H](COP(=O)(O)O)N[*:1])[*:2]].W.D.Q.N.S.S.E.Q.G}$$$$V2.0) | – | – | IC50 [1]: > 30000 nM
CC(C)C[C@H](NC(=O)[C@@H]1CCCN1C(=O)[C@H](CC(C)C)NC(=O)[C@@H](NC(=O)[C@@H]1CCCN1C(=O)[C@H](CC(=O)O)NC(=O)[C@H](CCC(=O)O)NC(=O)[C@H](CO)NC(=O)[C@H](Cc1ccc(OP(=O)(O)O)cc1)NC(=O)[C@H](CCCNC(=N)N)NC(=O)[C@H](CCC(N)=O)NC(=O)[C@H](CC(C)C)NC(=O)[C@@H]1CCCN1C(=O)[C@H](CO)NC(=O)[C@H](CC(C)C)NC(=O)[C@H](CC(=O)O)NC(=O)[C@H](Cc1c[nH]cn1)NC(=O)[C@@H]1CCCN1C(=O)[C@@H](N)CO)[C@@H](C)O)C(=O)O [SPHDLSPLQR (pY) SEDPTLPL] (HELM PEPTIDE1{S.P.H.D.L.S.P.L.Q.R.[O=C([C@H](Cc1ccc(OP(=O)(O)O)cc1)N[*:1])[*:2]].S.E.D.P.T.L.P.L}$$$$V2.0) | – | > 100000 nM | –
CC(C)C[C@H](NC(=O)[C@@H]1CCCN1C(=O)[C@H](C)N)C(=O)N[C@@H](C)C(=O)N[C@@H](CS)C(=O)N[C@@H](CO)C(=O)N1CCC[C@H]1C(=O)N[C@@H](CCC(N)=O)C(=O)N1CCC[C@H]1C(=O)N[C@@H](CCC(=O)O)C(=O)N[C@@H](Cc1ccc(OP(=O)(O)O)cc1)C(=O)N[C@H](C(=O)N[C@@H](CC(N)=O)C(=O)N[C@@H](CCC(N)=O)C(=O)N1CCC[C@H]1C(=O)N[C@@H](CCC(=O)O)C(=O)N[C@H](C(=O)N[C@@H](CCCNC(=N)N)C(=O)N1CCC[C@H]1C(=O)N[C@@H](CCC(N)=O)C(=O)N[C@@H](CO)C(=O)O)C(C)C)C(C)C [APLACSPQPE (pY) VNQPEVRPQS, APLACSPQPE(pY)VNQPEVRPQS] (HELM PEPTIDE1{A.P.L.A.C.S.P.Q.P.E.[O=C([C@H](Cc1ccc(OP(=O)(O)O)cc1)N[*:1])[*:2]].V.N.Q.P.E.V.R.P.Q.S}$$$$V2.0) | – | > 100000 nM | –
CC(C)C[C@H](NC(=O)[C@@H]1CCCN1C(=O)[C@H](C)NC(=O)[C@@H](NC(=O)[C@H](Cc1ccc(OP(=O)(O)O)cc1)NC(=O)CNC(=O)[C@H](CC(=O)O)NC(=O)[C@@H](NC(=O)[C@H](CCC(=O)O)NC(=O)[C@@H]1CCCN1C(=O)[C@@H]1CCCN1C(=O)[C@H](CC(C)C)NC(=O)[C@@H]1CCCN1C(=O)[C@H](CC(C)C)NC(=O)[C@@H](N)[C@@H](C)O)[C@@H](C)O)C(C)C)C(=O)N[C@@H](C)C(=O)N[C@@H](CS)C(=O)N[C@@H](CO)C(=O)N1CCC[C@H]1C(=O)N[C@@H](CCC(N)=O)C(=O)O [TLPLPPETDG (pY) VAPLACSPQ, TLPLPPETDG(pY)VAPLACSPQ] (HELM PEPTIDE1{T.L.P.L.P.P.E.T.D.G.[O=C([C@H](Cc1ccc(OP(=O)(O)O)cc1)N[*:1])[*:2]].V.A.P.L.A.C.S.P.Q}$$$$V2.0) | – | > 100000 nM | –
CC(C)C[C@H](NC(=O)[C@H](CC(N)=O)NC(=O)[C@H](CC(=O)O)NC(=O)[C@H](Cc1ccccc1)NC(=O)[C@H](C)N)C(=O)N[C@@H](Cc1ccc(OP(=O)(O)O)cc1)C(=O)N[C@@H](Cc1ccc(OP(=O)(O)O)cc1)C(=O)N[C@@H](Cc1c[nH]c2ccccc12)C(=O)N[C@@H](CC(=O)O)C(=O)N[C@@H](CCC(N)=O)C(=O)N[C@@H](CC(N)=O)C(=O)N[C@@H](CO)C(=O)O [AFDNL (pY) (pY) WDQNS, AFDNL(pY)(pY)WDQNS] (HELM PEPTIDE1{A.F.D.N.L.[O=C([C@H](Cc1ccc(OP(=O)(O)O)cc1)N[*:1])[*:2]].[O=C([C@H](Cc1ccc(OP(=O)(O)O)cc1)N[*:1])[*:2]].W.D.Q.N.S}$$$$V2.0) | 30 nM | – | –
CC(C)C[C@H](NC(=O)CNC(=O)[C@H](CC(C)C)NC(=O)[C@H](Cc1ccc(OP(=O)(O)O)cc1)NC(=O)[C@H](CCC(=O)O)NC(=O)[C@@H]1CCCN1C(=O)[C@H](CC(N)=O)NC(=O)[C@H](CCC(=O)O)NC(=O)[C@H](C)NC(=O)[C@@H](NC(=O)[C@@H]1CCCN1C(=O)[C@@H](NC(=O)CNC(=O)[C@@H](N)CCC(=O)O)[C@@H](C)O)[C@@H](C)O)C(=O)N[C@@H](CC(=O)O)C(=O)N[C@H](C(=O)N1CCC[C@H]1C(=O)N[C@H](C(=O)O)C(C)C)C(C)C [EGTPTAENPE (pY) LGLDVPV, EGTPTAENPE(pY)LGLDVPV] (HELM PEPTIDE1{E.G.T.P.T.A.E.N.P.E.[O=C([C@H](Cc1ccc(OP(=O)(O)O)cc1)N[*:1])[*:2]].L.G.L.D.V.P.V}$$$$V2.0) | – | 1000 nM | IC50 (approximate IC50, inhibition of PTB domain/c-erbB2 binding): ~1000 nM
PAFSPAFDNLEEWDQNSSEQG | – | – | IC50 [1]: > 30000 nM
